Series [1] is described as follows: Hydrolysis under a relatively-high acidic- and temperature-condition. It counts as physicochemical. The following applies: relative to the substances X and Y; pH 1.7, 100° C. On the procedure: Thus, we removed 2-O-α-D-glucopyranosyl-L-ascorbic acid by using this hydrolysis.
The method was as follows: The second mother liquor was adjusted to give a concentration of 25%, adjusted to pH 1.7 by the addition of hydrochloric acid, and allowed to predominantly hydrolyze 2-O-α-D-glucopyranosyl-L-ascorbic acid at 100° C. Thereafter, the resultant solution was cooled and fed to a column packed with an anion exchange resin (OH^- -form) to adsorb the substances X and Y thereon, and the column was washed with water and fed with 0.5N hydrochloric acid to obtain a solution containing the substances X and Y.

A short description of a further series: physchem. It counts as physicochemical. The following applies: for Stability, residual percentage: 0 min, 70 uM; for remaining at 21 h, 70 µM / remaining at 0.5 h, 70 µM / remaining at 1 h, 70 µM / remaining at 0.25 h, 70 µM: aqueous solution. On the procedure:
(h) Stability: The stability of the substance X was compared with L-ascorbic acid as a control. Each specimen was adjusted to give a concentration of 70 μM and to pH 7.0 or pH 2.0, and the resultant each solution was placed in a cell for an absorption spectrophotometer. The cell was set to the absorption spectrophotometer and kept at 20° C., followed by determining at a prescribed time interval an absorbance at 265 nm with the solution of pH 7.0 and an absorbance at 243 nm with the solution of pH 2.0, and comparing the residual percentage (%) of each specimen.

A further series deals with 7 week-old dd mice. In words: Acute toxicity test, oral. It counts as in vivo. As to conditions: up to 5 g of the specimen, a higher dose was difficult. The source says:
A high-purity 5-O-α-D-glucopyranosyl-L-ascorbic acid, prepared by the method in Experiment 1, was orally administered to 7 week-old dd mice for acute toxicity test. As a result, no mouse died when administered with up to 5 g of the specimen, and a higher dose was difficult.

Series [2] deals with enzyme of a small intestinal membrane. Put plainly: Hydrolysis by enzyme of small intestinal membrane. As to conditions: method of Okada et al. It counts as in vitro ADME.
The next series is described as follows: Solubility in solvents. It counts as physicochemical.
A short description of series [3]: Coloring reaction / direct reducing activity. The class given is physicochemical.

Results on four compounds are retold here after US5272136A, “5-0-α-D-Glucopyranosyl-L-ascorbic acid, and its preparation and uses” (priority 1991, dated 1993).

`O=C1O[C@H]([C@@H](O)CO)C(O)=C1O[C@H]1O[C@H](CO)[C@@H](O)[C@H](O)[C@H]1O` [2-O-α-D-glucopyranosyl-L-ascorbic acid]: the “Hydrolysis under relatively-high acidic- and temperature-condition” value in series [1] is “more readily hydrolyzed than the substances X and Y”.
Take `O=C1O[C@H]([C@@H](O)CO)C(O)=C1O` [AsA, L-ascorbic acid]: in “physchem” (pH 2), the “Stability, residual percentage” value turned out to be 100% and the amount remaining – broadly, the share of the starting amount still present when the sample was taken – at 21 h, 70 µM worked out at 10%. In “physchem” (pH 7), the “Stability, residual percentage” value worked out at 100%; the share remaining at 0.5 h, 70 µM was 20%; the share remaining at 1 h, 70 µM worked out at 8%; the fraction remaining at 21 h, 70 µM worked out at 2%.
With `O=C1O[C@H]([C@H](CO)O[C@H]2O[C@H](CO)[C@@H](O)[C@H](O)[C@H]2O)C(O)=C1O` [substance X, 5-O-α-D-glucopyranosyl-L-ascorbic acid], in the series “physchem”, the “Stability compared with L-ascorbic acid” value is given as “stabler than L-ascorbic acid”. For the same compound, in the series “physchem” (pH 2), the “Stability, residual percentage” value is recorded as 100%; the share remaining at 0.25 h, 70 µM amounted to 99%; the share remaining at 0.5 h, 70 µM was found to be 98%; the fraction remaining at 1 h, 70 µM came out at 90%. This compound also showed an amount remaining at 21 h, 70 µM in “physchem” (pH 2) of 50%. Also, in the series “physchem” (pH 7), the “Stability, residual percentage” value was found to be 100%; the fraction remaining at 0.25 h, 70 µM worked out at 58%; the fraction remaining at 0.5 h, 70 µM was 35%; the amount remaining at 1 h, 70 µM was found to be 16%. In the series “physchem” (pH 7), this compound had a share remaining at 21 h, 70 µM of 6%. Also, in the series with 7 week-old dd mice, the “Acute toxicity, mortality” value is “no mouse died”. Further, the “Hydrolysis by enzyme of small intestinal membrane” value in series [2] is “readily hydrolyzed”. Moreover, in “Solubility in solvents” (0.1M acetic acid), the “Solubility in 0.1M acetic acid” value is “readily soluble”. Besides, the “Solubility in 0.1N sodium hydroxide” value in “Solubility in solvents” (0.1N sodium hydroxide) is “readily soluble”. For the same compound, the Solubility in benzene result in the series “Solubility in solvents” (benzene) was “insoluble”. The Solubility in chloroform entry in the series “Solubility in solvents” (chloroform) was “insoluble”. Besides, the Solubility in ethanol result in “Solubility in solvents” (ethanol) is “slightly soluble”. Moreover, the Solubility in ether entry in “Solubility in solvents” (ether) is recorded as “insoluble”. The Solubility in methanol result in the series “Solubility in solvents” (methanol) is listed as “slightly soluble”. Also, the Solubility in water entry in “Solubility in solvents” (water) is on record as “readily soluble”. For the same compound, in series [3], the “Reducing activity (decoloring of 2,6-dichlorophenolindophenol)” value was “exhibits a reducing activity, and decolors 2,6-dichlorophenolindophenol”.
Take `O=C1O[C@H]([C@@H](O)CO[C@H]2O[C@H](CO)[C@@H](O)[C@H](O)[C@H]2O)C(O)=C1O` [substance Y, 6-O-α-D-glucopyranosyl-L-ascorbic acid, reference compound]: in series [2], the “Hydrolysis by enzyme of small intestinal membrane” value is reported as “not substantially hydrolyzed”.
